The results in this text go back to ChEMBL document CHEMBL5385884, “Expanding role of CXCR2 and therapeutic potential of CXCR2 antagonists in inflammatory diseases and cancers” (Eur J Med Chem, 2023).

Usually IC50 stands for the concentration that inhibits the measured activity by half.

The target in data set [1] is C-X-C chemokine receptor type 4 (Homo sapiens, UniProt P61073). In words: Antagonist activity at SDF-1-activated CXCR4 (unknown origin) overexpressed in human U2OS cells preincubated for 30 mins followed by SDF-1 addition measured after 5 hrs by beta-lactamase reporter gene assay. It is filed as functional, cell-based. For orientation: In a reporter assay the amount or activity of a reporter protein is the signal.

In data set [2] the target is T1, C-X-C chemokine receptor type 2 (Homo sapiens, UniProt P25025).
T1 sequence (P25025 whole entry): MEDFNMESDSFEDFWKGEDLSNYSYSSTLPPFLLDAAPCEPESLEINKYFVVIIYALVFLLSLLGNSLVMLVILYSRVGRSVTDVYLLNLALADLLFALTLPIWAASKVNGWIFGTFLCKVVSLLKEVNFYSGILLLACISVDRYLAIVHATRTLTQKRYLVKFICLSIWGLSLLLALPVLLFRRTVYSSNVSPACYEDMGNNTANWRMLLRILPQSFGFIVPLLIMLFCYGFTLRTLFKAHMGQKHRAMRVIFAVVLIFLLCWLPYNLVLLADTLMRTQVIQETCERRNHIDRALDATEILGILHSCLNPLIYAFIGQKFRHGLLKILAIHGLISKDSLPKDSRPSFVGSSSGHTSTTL
The data set is described as follows: Antagonist activity at CXCR2 (unknown origin). It is filed as functional.

Data set [3] concerns the target T1, C-X-C chemokine receptor type 2. In words: Antagonist activity at CXCL8-activated CXCR2 (unknown origin) overexpressed in human U2OS cells preincubated for 30 mins followed by CXCL8 addition measured after 5 hrs by beta-lactamase reporter gene assay. It is filed as functional, cell-based.
The nature of data set [4]: Intrinsic clearance in human hepatocytes measured per million cells at 100 uM incubated upto 90 mins by LCMS/MS analysis. The following applies: read-out: CLH. It is filed as ADME, cell-based, Hepatocyte.
The nature of data set [5]: Effective half life in human. It is filed as ADME. The following applies: read-out: t1/2eff (converted).

Chain of C-X-C chemokine receptor type 4 (P61073 whole entry): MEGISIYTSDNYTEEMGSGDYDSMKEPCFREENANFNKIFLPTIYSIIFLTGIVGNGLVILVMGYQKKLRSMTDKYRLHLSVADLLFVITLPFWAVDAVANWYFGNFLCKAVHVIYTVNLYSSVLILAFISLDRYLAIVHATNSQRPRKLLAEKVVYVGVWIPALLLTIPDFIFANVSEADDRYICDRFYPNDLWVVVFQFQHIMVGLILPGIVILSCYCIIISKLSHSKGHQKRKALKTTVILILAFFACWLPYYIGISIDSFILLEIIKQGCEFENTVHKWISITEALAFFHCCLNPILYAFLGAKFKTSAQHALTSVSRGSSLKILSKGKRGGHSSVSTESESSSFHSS

Take `CC(=O)c1c(C)oc2c1cc(NS(=O)(=O)c1ccc(C(C)(C)C)cc1)c1ccccc12`: the IC50 in data set [1] was above 50000 nM.

In data set [2], `C[C@@H](C(=O)NS(C)(=O)=O)c1ccc(OS(=O)(=O)C(F)(F)F)cc1` [LADARIXIN] gave an IC50 of 0.7 nM.

As for `COc1cc(NS(=O)(=O)c2cccc3nsnc23)c2ncccc2c1`, the IC50 in data set [1] stood at 590 nM; in data set [3], 360 nM.

Take `COc1cc(NS(=O)(=O)c2ccc(C)cc2)c2ncccc2c1`: the IC50 in data set [3] was 400 nM.

Consider `C[C@@H](Oc1cc(NS(=O)(=O)N2CCC2)nc(SCc2cccc(F)c2F)n1)[C@@H](O)CO`, for which the hepatocyte CLint at 100 µM in data set [4] was below 5 µL/min/1e6 cells. Also, the half-life in data set [5] was 4 h.

For `O=C(Nc1ccc(F)cc1)c1cnc(SCc2cc(OC(F)(F)F)ccc2B(O)O)nc1` [SX-682], the IC50 in data set [2] amounted to 22 nM.
